Results reported in the RepoRT retention time repository (doi:10.1021/acs.analchem.2c02893).

Assay: RP, Thermo Scientific Acclaim RSLC 120 C18, 100 × 2.1 mm, 2.2 µm, 30 °C, 0.2 mL/min, estimated dead time 1.1 min; A: 90% water + 10% methanol + 0.01% formic acid + 5 mM ammonium formate, pH 3.61; B: methanol + 0.01% formic acid + 5 mM ammonium formate, pH 3.61; gradient (min/%B) 0/1 1/1 2/39 13/99.9 15/99.9 15.1/1 20.1/1
Settings: stereoisomer not certain

| LC retention time | Structure (SMILES) |
| --- | --- |
| 6.71 min | CN1C(=O)CC(C)(c2ccccc2)C1=O (configuration not stated) [Methsuximide] |
| 4.74 min | CNc1c(C)n(C)n(-c2ccccc2)c1=O [Methylaminophenazone (4-)] |
| 6 min | COC(=O)c1ccc(O)cc1 [Methylparaben] |
| 6.28 min | CC(=O)Oc1c(C)cc(OCC(O)CNC(C)C)c(C)c1C (configuration not stated) [Metipranolol] |
| 8.51 min | CN1CCCC(CC2c3ccccc3Sc3ccccc32)C1 (configuration not stated) [Metixene] |
| 4.36 min | CCN(CC)CCNC(=O)c1cc(Cl)c(N)cc1OC [Metoclopramide] |
| 7.34 min | CCc1cccc(C)c1N(C(=O)CS(=O)(=O)O)C(C)COC (configuration not stated) [Metolachlor-ESA] |
| 7.89 min | CCc1cccc(C)c1N1C(=O)COCC1C (configuration not stated) [Metolachlor-morpholinon] |
| 6.08 min | Cc1ccccc1N1C(=O)c2cc(S(N)(=O)=O)c(Cl)cc2NC1C (configuration not stated) [Metolazone] |
| 7.46 min | CSc1nnc(C(C)(C)C)c(=O)[nH]1 [Metribuzin-Desamino (DA)] |
| 5.89 min | CC(C)(C)c1n[nH]c(=O)n(N)c1=O [Metribuzin-Diketo (DK)] |
| 3.58 min | Cc1nc([N+](=O)[O-])cn1CCO [Metronidazole] |
| 6.21 min | CC(C)(C(=O)c1cccnc1)c1cccnc1 [Metyrapone] |
| 5.59 min | Cc1cccc(C)c1OCC(C)N (configuration not stated) [Mexiletine] |
| 7.63 min | C[N+]1([O-])CCN2c3ccccc3Cc3ccccc3C2C1 (configuration not stated) [Mianserine-N-oxide] |
| 6.94 min | CN1CCN2c3ccccc3Cc3ccccc3C2C1 (configuration not stated) [Mianserine] |
| 13 min | Clc1ccc(COC(Cn2ccnc2)c2ccc(Cl)cc2Cl)c(Cl)c1 (configuration not stated) [Miconazole] |
| 11.1 min | CC#CC1(O)CCC2C3CCC4=CC(=O)CCC4=C3C(c3ccc(N(C)C)cc3)CC21C (configuration not stated) [Mifepristone] |
| 5.73 min | CCN(CC)C(=O)C1(c2ccccc2)CC1CN (configuration not stated) [Milnacipran] |
| 4.88 min | N=c1nc(N2CCCCC2)cc(N)n1O [Minoxidil] |
| 9.49 min | CCCOc1ccc(S(=O)(=O)N2CCN(CCO)CC2)cc1-c1nc2c(CCC)cn(CC)c2c(=O)[nH]1 [Mirodenafil] |
| 5.29 min | CN1CCN2c3ncccc3Cc3ccccc3C2C1 (configuration not stated) [Mirtazapine] |
| 9.14 min | CN(c1nccc(=O)[nH]1)C1CCN(c2nc3ccccc3n2Cc2ccc(F)cc2)CC1 [Mizolastine] |

| LC retention time | Structure (SMILES) |
| --- | --- |
| 4.98 min | O=C(NCCN1CCOCC1)c1ccc(Cl)cc1 [Moclobemide] |
| 4.89 min | CCc1c(C)[nH]c2c1C(=O)C(CN1CCOCC1)CC2 (configuration not stated) [Molindone] |
| 10.6 min | CC1CC2C3CCC4=CC(=O)C=CC4(C)C3(Cl)C(O)CC2(C)C1(OC(=O)c1ccco1)C(=O)CCl (configuration not stated) [Mometasone fuorate] |
| 13.4 min | CC(C)(O)c1ccccc1CCC(SCC1(CC(=O)O)CC1)c1cccc(C=Cc2ccc3ccc(Cl)cc3n2)c1 (configuration not stated) [Montelukast] |
| 6.59 min | Cc1ccc(C2(O)CCN(CCCC(=O)c3ccc(F)cc3)CC2)cc1 [Moperone] |
| 4.36 min | Cc1ccsc1C=CC1=NCCCN1C [Morantel] |
| 8.29 min | CCc1cc2cc(OC)c(OC)cc2c(Cc2ccccc2)n1 [Moxaverine] |
| 13.8 min | CON=C1CC2(CC3CC(CC=C(C)CC(C)C=CC=C4COC5C(O)C(C)=CC(C(=O)O3)C45O)O2)OC(C(C)=CC(C)C)C1C (configuration not stated) [Moxidectin] |
| 5.17 min | COc1c(N2CC3CCCNC3C2)c(F)cc2c(=O)c(C(=O)O)cn(C3CC3)c12 (configuration not stated) [Moxifloxacin] |
| 6.21 min | CC(=O)Oc1cc(C(C)C)c(OCCN(C)C)cc1C [Moxisylyte] |
| 3.26 min | COc1nc(C)nc(Cl)c1NC1=NCCN1 [Moxonidine] |
| 8.79 min | COc1c(C)c2c(c(O)c1CC=C(C)CCC(=O)O)C(=O)OC2 [Mycophenolic acid] |
| 8.59 min | CCCCCCCCCCN(C)C [N,N-Dimethyldecylamine] |
| 11.2 min | CCCCCCCCCCCC[N+](C)(C)[O-] [N,N-Dimethyldodecylamine N-oxide] |
| 2.02 min | CN(C)S(N)(=O)=O [N,N-Dimethylsulfamide] |
| 12.6 min | CCCCCCCCCCCCCC[N+](C)(C)[O-] [N,N-Dimethyltetradecylamine-N-oxide] |
| 11.8 min | CCCCCCCCCCCCCCN(C)C [N,N-Dimethyltetradecylamine] |
| 6.67 min | Cc1ccc(NC=O)c(C)c1 [N-2-4-Dimethylphenylformamide (DMF. Metabolite Amitraz)] |
| 3.43 min | CC(=O)Nc1ccc(O)c(C(=O)O)c1 [N-Acetyl mesalazine] |
| 10.9 min | c1ccc2sc(NC3CCCCC3)nc2c1 [N-Cyclohexyl-2-benzothiazol-amine] |
| 3.1 min | CN1CCCC1=O [N-Methyl-2-pyrrolidone] |
| 10.5 min | CCCCCCCCCCCCNC [N-Methyldodecylamine] |
| 5.59 min | CCNC(=O)c1ccc(OC)cc1 [N-ethyl-4-methoxybenzamide] |

Continued, compound first:

| Structure (SMILES) | LC retention time |
| --- | --- |
| COc1cccc(C(=O)NN(C(=O)c2cc(C)cc(C)c2)C(C)(C)C)c1C [Methoxyfenozide] | 9.56 min |
| CNC(C)Cc1ccccc1OC (configuration not stated) [Methoxyphenamine] | 4.69 min |
| CC(C(O)c1ccccc1)N(C)C (configuration not stated) [Methylephedrine] | 3.73 min |
| CNC(C)C(=O)c1ccc2c(c1)OCO2 (configuration not stated) [Methylone (MDMC)] | 3.81 min |
| COC(=O)C(c1ccccc1)C1CCCCN1 (configuration not stated) [Methylphenidate] | 4.96 min |
| CCc1cc2c(s1)-n1cnnc1CN=C2c1ccccc1Cl [Metizolam (Desmethyletizolam)] | 7.93 min |
| CON(C)C(=O)Nc1ccc(Br)cc1 [Metobromuron] | 8.15 min |
| CCc1cccc(C)c1N(C(=O)CCl)C(C)COC (configuration not stated) [Metolachlor] | 10.3 min |
| CNC(=O)Oc1cccc(C)c1 [Metolcarb] | 6.59 min |
| COc1cc(OC)n2nc(S(=O)(=O)Nc3c(Cl)ccc(C)c3Cl)nc2n1 [Metosulam] | 7.1 min |
| COc1ccc(NC(=O)N(C)C)cc1Cl [Metoxuron] | 6.17 min |
| COc1cc(C)c(C(=O)c2c(OC)ccc(Br)c2C)c(OC)c1OC [Metrafenone] | 11.4 min |
| CSc1nnc(C(C)(C)C)c(=O)n1N [Metribuzin] | 7.07 min |
| COC(=O)c1ccccc1S(=O)(=O)NC(=O)Nc1nc(C)nc(OC)n1 [Metsulfuron-methyl] | 6.31 min |
| CNC(=O)Oc1cc(C)c(N(C)C)c(C)c1 [Mexacarbate] | 9.3 min |
| c1ccc2c(c1)Cc1ccccc1N1CCNCC21 (configuration not stated) [Mianserine-Nor] | 6.86 min |
| OCc1ncc2n1-c1ccc(Cl)cc1C(c1ccccc1F)=NC2 [Midazolam -1-Hydroxy] | 8.44 min |
| Cc1ncc2n1-c1ccc(Cl)cc1C(c1ccccc1F)=NC2 [Midazolam] | 8.63 min |
| CN1CCN2c3ncc(O)cc3Cc3ccccc3C2C1 (configuration not stated) [Mirtazapine- 8-OH] | 4.54 min |
| c1ccc2c(c1)Cc1cccnc1N1CCNCC21 (configuration not stated) [Mirtazapine-Desmethyl (normirtazapine)] | 5.31 min |
| CCC1CN2CCC3(O)C(=Nc4cccc(OC)c43)C2CC1C(=COC)C(=O)OC (configuration not stated) [Mitragynine-7-Hydroxy] | 5.95 min |

| Structure (SMILES) | LC retention time |
| --- | --- |
| NC(=O)CS(=O)C(c1ccccc1)c1ccccc1 (configuration not stated) [Modafinil] | 6.76 min |
| CCSC(=O)N1CCCCCC1 [Molinate] | 9.89 min |
| CCC1(C2OC(C3OC(O)(CO)C(C)CC3C)CC2C)CCC(C2(C)CCC3(CC(O)C(C)C(C(C)C(OC)C(C)C(=O)O)O3)O2)O1 (configuration not stated) [Monensin] | 13.8 min |
| CC1C(=O)OC2CC[N+]3([O-])CC=C(COC(=O)C(C)(O)C1(C)O)C23 (configuration not stated) [Monocrotaline-N-oxide] | 3.19 min |
| CC1C(=O)OC2CCN3CC=C(COC(=O)C(C)(O)C1(C)O)C23 (configuration not stated) [Monocrotaline] | 2.92 min |
| CNC(=O)C=C(C)OP(=O)(OC)OC [Monocrotophos] | 4.36 min |
| CON(C)C(=O)Nc1ccc(Cl)cc1 [Monolinuron] | 7.76 min |
| CN(C)C(=O)Nc1ccc(Cl)cc1 [Monuron] | 6.9 min |
| CN1CCC23c4c5ccc(OC6OC(C(=O)O)C(O)C(O)C6O)c4OC2C(O)C=CC3C1C5 [Morphine-3-beta-D-glucuronide] | 1.63 min |
| CN1CCC23c4c5ccc(O)c4OC2C(O)CCC3C1C5 (configuration not stated) [Morphine-Dihydro] | 2.66 min |
| CCOc1ccc2c3c1OC1C(O)C=CC4C(C2)N(C)CCC341 (configuration not stated) [Morphine-Ethyl] | 4.08 min |
| Oc1ccc2c3c1OC1C(O)C=CC4C(C2)NCCC341 (configuration not stated) [Morphine-Nor] | 2.71 min |
| CCCCC(C#N)(Cn1cncn1)c1ccc(Cl)cc1 (configuration not stated) [Myclobutanil] | 9.74 min |
| CN=CNc1ccc(C)cc1C [N'-(2 4-Dimethylphenyl)-N-methylformamidine] | 4.44 min |
| CCCCCCCCCCCCN(C)C [N,N-Dimethyldodecylamine] | 10.4 min |
| O=C(c1cccc2ccccc12)c1cn(CC2CCCCC2)c2ccccc12 [NE-CHMIMO] | 13 min |
| O=C(Oc1cccc2ccccc12)c1cn(CCCCCF)c2ccccc12 [NM-2201] | 12.4 min |
| CCCCCn1cc(C(=O)Nc2cccc3ccccc23)c2ccccc21 [NNEI] | 11.7 min |
| O=C(Oc1cccc2cccnc12)c1nn(CCCCCF)c2ccccc12 [NPB-22-5F] | 10.3 min |
| CCCCCn1nc(C(=O)Oc2cccc3cccnc23)c2ccccc21 [NPB-22] | 11.4 min |
